Source: article PMC8194517, “B^0AT1 Amino Acid Transporter Complexed With SARS-CoV-2 Receptor ACE2 Forms a Heterodimer Functional Unit: In Situ Conformation Using Radiation Inactivation Analysis” (Function, 2021)

Test system: T1, B^0AT1 ([ACE2:B^0AT1] heterodimer functional unit)
T1 construct: gene SLC6A19; native, ileal apical brush border membrane vesicles, lyophilized and reconstituted; full-length; with Angiotensin-converting enzyme 2
Experiment: radiotracer uptake into brush border membrane vesicles, […] s initial rate
Assay type: biochemical, Oryctolagus cuniculus
Settings: labelled compound; Na+-dependent zero-trans influx, 100 mM NaSCN, pH 7.5, 22°C; apparent Km, major component after subtracting diffusion and a minor 'Other' component

Km: 6.9 ± 0.8 mM
Compound: C[C@H](N)C(=O)O [L-alanine]
